According to patent publication US8273773B2 (priority 2008, dated 2012):
pIC50: −log10 of the molar value. Read-outs that look alike come from different tables or passages of the source.

Key:
[1] = test system: HCV replicon cells (2209-23), genotype 1b replicon; assay: HCV Replicon Assay (Renilla luciferase reporter); type: cell-based, HCV genotype 1b replicon in human hepatoma Huh7 cells; conditions: 2209-23 cells, three days incubation
[2] = target: T1, HCV polymerase (NS5B570n-Con1) (Hepatitis C virus genotype 1b, UniProt Q9WMX2); assay: biochemical; parameters: species or system HCV Con1 strain;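 note: recombinant His-tagged enzyme from E. coli, radiolabeled nucleotide incorporation into acid-insoluble RNA read by scintillation after filtration, no-enzyme background subtracted, activity relative to positive control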
T1 construct: contains a 21 amino acid deletion at the C-terminus relative to the full-length HCV polymerase; 6-histidine (N); made in house; host or cells: E. coli strain BL21(DE) pLysS (pET17b)

HCV = conditions: monotherapy; cited from earlier work
[3] = IC50 HCV NS5B RNA Polymerase Assay (values with asterisk), values with asterisk: cIRES RNA template, 3 nM NS5B570n-Con1
[4] = IC50 HCV NS5B RNA Polymerase Assay, values without asterisk, 20 nM NS5B570n-Con1 enzyme, 20 nM cIRES RNA template

CC1(C)COc2c(-c3cc(F)c[nH]c3=O)cc(/C=C/c3ccc(NS(C)(=O)=O)cc3)cc21 [II-3]
pIC50 ([1]; Hepatitis C virus, 72 h): 7.26
melting point: 264 to 266 °C

COc1c(/C=C/c2ccc(NS(C)(=O)=O)cc2)cc(-c2cc(F)c[nH]c2=O)cc1C(C)(C)C [I-142, N-(4-{(E)-2-[3-tert-Butyl-5-(5-fluoro-2-oxo-1,2-dihydro-pyridin-3-yl)-2-methoxy-phenyl]-vinyl}-phenyl)-methanesulfonamide]
pIC50 ([1]; Hepatitis C virus, 72 h): 7.11

COc1c(/C=C/c2ccc(NS(C)(=O)=O)cc2)cc(-c2ccc[nH]c2=O)cc1C1(C#N)CC1 [I-268, N-(4-{(E)-2-[3-(1-Cyano-cyclopropyl)-2-methoxy-5-(2-oxo-1,2-dihydro-pyridin-3-yl)-phenyl]-vinyl}-phenyl)-methanesulfonamide]
pIC50 ([1]; Hepatitis C virus, 72 h): 7.66

COc1c(/C=C/c2ccc(NS(C)(=O)=O)cc2)cc(-c2ccc[nH]c2=O)cc1C1(C(F)F)CC1 [I-270]
pIC50 [2, 3]: 9.00
pIC50 ([1]; Hepatitis C virus, 72 h): 7.46

COc1c(/C=C/c2ccccc2C(C)=O)cc(-c2ccc[nH]c2=O)cc1C(C)(C)C [I-243, 3-{3-[(E)-2-(2-Acetyl-phenyl)-vinyl]-5-tert-butyl-4-methoxy-phenyl}-1H-pyridin-2-one]
pIC50 ([1]; Hepatitis C virus, 72 h): 6.68

COc1c(/C=C/c2ccc(NS(C)(=O)=O)cc2)cc(-c2ccc[nH]c2=O)cc1C(C)(C)C [I-126, N-(4-{(E)-2-[3-tert-Butyl-2-methoxy-5-(2-oxo-1,2-dihydro-pyridin-3-yl)-phenyl]-vinyl}-phenyl)-methanesulfonamide]
pIC50 ([1]; Hepatitis C virus, 72 h): 8.22

COc1c(/C=C/c2ccc(NS(C)(=O)=O)cc2)cc(-c2ccc[nH]c2=O)cc1C1(Cl)CC1 [I-267]
pIC50 ([1]; Hepatitis C virus, 72 h): 7.99

COc1c(CCc2ccc(NS(C)(=O)=O)c(F)c2)cc(-c2ccc[nH]c2=O)cc1C(C)(C)C [I-103]
pIC50 [2, 4]: 8.10
melting point: 111 to 113 °C

CC1(C)COc2c(-c3ccc[nH]c3=O)cc(/C=C/c3ccc(NS(C)(=O)=O)cc3)cc21 [II-2]
pIC50 [2, 4]: 8.22
melting point: 231 to 233 °C

COc1c(NC(=O)c2ccc(N)cc2Cl)cc(-c2ccc[nH]c2=O)cc1C(C)(C)C [I-25]
pIC50 [2, 4]: 7.51
melting point: 226 to 228 °C

Cc1cc(C(C)(C)C)cc(-c2ccc[nH]c2=O)c1O [I-11]
pIC50 [2, 4]: 6.47
melting point: 207 to 208.5 °C

COc1c(C(=O)c2cccc(NS(C)(=O)=O)c2)cc(-c2ccc[nH]c2=O)cc1C(C)(C)C [I-100, N-{3-[3-tert-Butyl-2-methoxy-5-(2-oxo-1,2-dihydro-pyridin-3-yl)-benzoyl]-phenyl}-methanesulfonamide]
pIC50 [2, 4]: 7.80
melting point: 261 to 263 °C

CC(C)(C)c1cc(CCc2ccc(NS(C)(=O)=O)cc2)c(N)c(-c2ccc[nH]c2=O)c1 [I-98, N-(4-{2-[2-Amino-5-tert-butyl-3-(2-oxo-1,2-dihydro-pyridin-3-yl)-phenyl]-ethyl}-phenyl)-methanesulfonamide]
pIC50 [2, 4]: 8.15
melting point: 140 to 142 °C

CCc1cc(-c2ccc[nH]c2=O)cc(C(C)(C)C)c1OC [I-30]
pIC50 [2, 4]: 6.14
melting point: 213 to 214 °C

COc1c(C(=O)c2sccc2C)cc(-c2ccc[nH]c2=O)cc1C(C)(C)C [I-57]
pIC50 [2, 4]: 7.21
melting point: 123.3 to 125.5 °C

CC(C)(C)c1cc(CCc2ccc(NS(C)(=O)=O)cc2)c(O)c(-c2ccc[nH]c2=O)c1 [I-51, N-(4-{2-[5-tert-Butyl-2-hydroxy-3-(2-oxo-1,2-dihydro-pyridin-3-yl)-phenyl]-ethyl}-phenyl)-methanesulfonamide]
pIC50 [2, 4]: 8.00
melting point: 96.4 to 135.6 °C

COc1c(C(=O)c2cccc(O)c2)cc(-c2ccc[nH]c2=O)cc1C(C)(C)C [I-54]
pIC50 [2, 4]: 8.05
melting point: 145 to 148 °C

COc1c(Cc2ccccc2)cc(-c2ccc[nH]c2=O)cc1C(C)(C)C [I-48]
pIC50 [2, 4]: 6.28
melting point: 202.6 to 204.3 °C

COc1c(C(=O)Nc2cccc(CNS(C)(=O)=O)c2)cc(-c2ccc[nH]c2=O)cc1C(C)(C)C [I-112, 3-tert-Butyl-N-[3-(methanesulfonylamino-methyl)-phenyl]-2-methoxy-5-(2-oxo-1,2-dihydro-pyridin-3-yl)-benzamide]
pIC50 [2, 4]: 7.32
melting point: 145 to 147 °C

COc1c(/C=C/c2ccc(NS(C)(=O)=O)cc2C#N)cc(-c2ccc[nH]c2=O)cc1C(C)(C)C [I-150, N-(4-{(E)-2-[3-tert-Butyl-2-methoxy-5-(2-oxo-1,2-dihydro-pyridin-3-yl)-phenyl]-vinyl}-3-cyano-phenyl)-methanesulfonamide]
pIC50 [2, 4]: 8.52
melting point: 266 to 268 °C

COc1c(C(=O)c2ccnc(N)c2)cc(-c2ccc[nH]c2=O)cc1C(C)(C)C [I-84, 3-[3-(2-Amino-pyridine-4-carbonyl)-5-tert-butyl-4-methoxy-phenyl]-1H-pyridin-2-one]
pIC50 [2, 4]: 7.49
melting point: 140 to 145 °C

COc1c(C(=O)c2cccc(N)c2)cc(-c2ccc[nH]c2=O)cc1C(C)(C)C [I-59, 3-[3-(3-amino-benzoyl)-5-tert-butyl-4-methoxy-phenyl]-1H-pyridin-2-one]
pIC50 [2, 4]: 8.05
melting point: 145 to 150 °C

COc1c(/C=C/c2ccc(NS(C)(=O)=O)cc2CO)cc(-c2cc(F)c[nH]c2=O)cc1C(C)(C)C [I-187, N-(4-{(E)-2-[3-tert-Butyl-5-(5-fluoro-2-oxo-1,2-dihydro-pyridin-3-yl)-2-methoxy-phenyl]-vinyl}-3-hydroxymethyl-phenyl)-methanesulfonamide]
pIC50 [2, 3]: 8.52
pIC50 ([1]; Hepatitis C virus, 72 h): 7.36

COc1c(/C=C/c2ccc(NS(C)(=O)=O)cc2)cc(-c2ccc[nH]c2=O)c2c1C(C)(C)CC2 [II-5, N-(4-{(E)-2-[4-Methoxy-3,3-dimethyl-7-(2-oxo-1,2-dihydro-pyridin-3-yl)-indan-5-yl]-vinyl}-phenyl)-methanesulfonamide]
pIC50 [2, 3]: 9.00
melting point: 283 to 286.6 °C

Cc1cc(C(=O)O)ccc1[N+](=O)[O-] [I-129]
pIC50 ([2]; values without asterisk, 20 nM NS5B570n-Con1 enzyme, 20 nM cIRES RNA template, read-out: IC50 HCV NS5B RNA Polymerase Assay): 8.15
pIC50 [1]: 7.00

CC1(C)COc2c(/C=C/c3ccc(NS(C)(=O)=O)cc3)cc(-c3ccc[nH]c3=O)cc21 [II-1, N-(4-{(E)-2-[3,3-Dimethyl-5-(2-oxo-1,2-dihydro-pyridin-3-yl)-2,3-dihydro-benzofuran-7-yl]-vinyl}-phenyl)-methanesulfonamide]
pIC50 [2, 4]: 8.30
melting point: 284 to 286 °C

COc1c(C(=O)c2cccc(CN)c2)cc(-c2ccc[nH]c2=O)cc1C(C)(C)C [I-106]
pIC50 [2, 4]: 7.62
melting point: 110 to 115 °C

Cc1ccc(-c2cc(C(C)(C)C)cc(/C=C/c3ccc(NS(C)(=O)=O)cc3)c2O)c(=O)[nH]1 [I-140]
pIC50 [2, 4]: 6.49
melting point: 258 to 260 °C

COc1c(NC(=O)c2ccc(NS(C)(=O)=O)cc2)cc(-c2ccc[nH]c2=O)cc1C1(C)CC1 [I-82]
pIC50 [2, 4]: 8.22
melting point: 254 to 256 °C

COc1c(CCc2ccc(NS(C)(=O)=O)cc2)cc(-c2ccc(C)[nH]c2=O)cc1C(C)(C)C [I-64, N-(4-{2-[3-tert-Butyl-2-methoxy-5-(6-methyl-2-oxo-1,2-dihydro-pyridin-3-yl)-phenyl]-ethyl}-phenyl)-methanesulfonamide]
pIC50 [2, 4]: 8.10
melting point: 239 to 241 °C

COc1c(CCc2ccc(NS(C)(=O)=O)cn2)cc(-c2ccc[nH]c2=O)cc1C(C)(C)C [I-124]
pIC50 [2, 4]: 8.52
melting point: 131 to 133 °C

COc1c(/C=C/c2ccc(NS(C)(=O)=O)cc2C(=O)O)cc(-c2ccc[nH]c2=O)cc1C(C)(C)C [I-203, 2-{(E)-2-[3-tert-Butyl-2-methoxy-5-(2-oxo-1,2-dihydro-pyridin-3-yl)-phenyl]-vinyl}-5-methanesulfonylamino-benzoic acid]
pIC50 ([1]; Hepatitis C virus, 72 h): 8.00
melting point: 260 to 262 °C

CC1(C)COc2c(-c3ccc[nH]c3=O)cc(NC(=O)c3ccc(NS(C)(=O)=O)cc3)cc21 [II-4, N-[3,3-Dimethyl-7-(2-oxo-1,2-dihydro-pyridin-3-yl)-2,3-dihydro-benzofuran-5-yl]-4-methanesulfonylamino-benzamide]
pIC50 [2, 4]: 7.48
melting point: > 300 °C

NC(=O)c1ncn([C@@H]2O[C@H](CO)[C@@H](O)[C@H]2O)n1 [ribavirin, 1-((2R,3R,4S,5R)-3,4-Dihydroxy-5-hydroxymethyl-tetrahydro-furan-2-yl)-1H-[1,2,4]triazole-3-carboxylic acid amide]
patients in whom serum amino transferase levels are reduced to normal (HCV): 40%

CNC(=O)Nc1ccc(CCc2cc(-c3ccc[nH]c3=O)cc(C(C)(C)C)c2)cc1 [I-86]
pIC50 [2, 4]: 6.56
melting point: 237 to 239 °C

Cc1cc(-c2cc(C)c[nH]c2=O)cc(C(C)(C)C)c1 [I-7]
pIC50 [2, 4]: 5.49
melting point: 212 to 213 °C

COc1c(CCc2ccc(NS(C)(=O)=O)nc2)cc(-c2ccc[nH]c2=O)cc1C(C)(C)C [I-123]
pIC50 [2, 4]: 8.52
melting point: 140 to 142 °C

CC(C)(C)c1cc(Br)c(O)c(-c2ccc[nH]c2=O)c1 [I-13]
pIC50 [2, 4]: 6.44
melting point: 243.4 to 246.2 °C
